Laboratory results as given in patent publication US20260191998A1, “INDOLE PHTHALOCYANINE COMPOUND, PREPARATION METHOD THEREFOR, AND USE THEREOF IN TUMOR DIAGNOSIS IMAGING” (JIANGSU YAHONG MEDITECH CO., LTD., priority 2022, published 2026).
Structures can show the parent of a compound that is named as a salt.

Assay: UV-VIS absorption spectra (optical property test)
Type: physicochemical
Conditions: 10 μM, DMSO solution; for Absorbance × 10^4: at maximum absorption peak
Method: The UV-VIS absorption spectra of the compounds (10 μM, DMSO solution) were detected using Shimadzu UV2600 spectrophotometer, and the maximum absorption peak and absorbance of each compound were obtained.

Absorption peak [nm]	Absorbance × 10^4	SMILES
782	2.60	CC[N+]1=C(/C=C/C2=C(Oc3ccc(S(=O)(=O)O)cc3)C(=C/C=C3/N(CCCCCC(=O)Oc4ccccc4)c4ccccc4C3(C)C)/CCC2)C(C)(C)c2ccccc21 [Example 20, 2-((E)-2-((E)-3-(2-((E)-3,3-dimethyl-1-(6-oxo-6-phenoxyhexyl)indol-2-methylene)ethenyl)-2-(4-sulfophenoxy)cyclohex-1-en-1-yl)ethenyl)-1-ethyl-3,3-dimethyl-3H-indol-1-ium Formate]
821	2.466	CC[N+]1=C(/C=C/C2=C(Cl)C(=C/C=C3/N(CCOCCC(=O)Oc4ccccc4)c4ccccc4C3(C)C)/CC2)C(C)(C)c2ccccc21 [Example 21, 2-((E)-2-((E)-2-chloro-3-(2-((E)-3,3-dimethyl-1-(2-(3-oxo-3-phenoxypropoxy)ethyl)indol-2-methylene)ethylidene)cyclopent-1-en-1-yl)ethenyl)-1-ethyl-3,3-dimethyl-3H-indol-1-ium Trifluoroacetate]
827	1.97	CC[N+]1=C(/C=C/C2=C(Cl)C(=C/C=C3/N(CCCCCC(=O)Oc4ccccc4)c4ccccc4C3(C)C)/CC2)C(C)(C)c2cc(S(=O)(=O)O)ccc21 [Example 22, 2-((E)-2-((E)-2-chloro-3-(2-((E)-3,3-dimethyl-1-(6-oxo-6-phenoxyhexyl)indolin-2-ylidene)ethenyl)cyclopent-1-en-1-yl)ethenyl)-1-ethyl-3,3-dimethyl-5-sulfonyl-3H-indol-1-ium Chloride]
797.5	2.44	CC1(C)C(/C=C/C2=C(Cl)C(=C/C=C3/N(CCCCCC(=O)Nc4ccccc4)c4ccccc4C3(C)C)/CCC2)=[N+](CCCCS(=O)(=O)O)c2ccccc21 [Example 26, 2-((E)-2-((E)-2-chloro-3-(2-((E)-3,3-dimethyl-1l-(6-oxo-6-(phenylamino)hexyl)indolin-2-ylidene)ethenyl)cyclohex-1-en-1-yl)ethenyl)-3,3-dimethyl-1-(4-sulfonylbutyl)-3H-indo-1-ium Formate]
796.5	2.29	CC1(C)C(/C=C/C2=C(Cl)C(=C/C=C3/N(CCCCCC(=O)Nc4ccccc4)c4ccccc4C3(C)C)/CCC2)=[N+](CCCCCC(=O)O)c2ccccc21 [Example 27A, 1-(5-carboxypentyl)-2-((E)-2-((E)-2-chloro-3-(2-((E)-3,3-dimethyl-1-(6-oxo-6-(phenylamino)hexyl)indolin-2-ylidene)ethenyl)cyclohex-1-en-1-yl)ethenyl)-3,3-dimethyl-3H-indol-1-ium 2,2,2-trifluoroacetate]
794.5	2.118	CC[N+]1=C(/C=C/C2=C(Cl)C(=C/C=C3/N(CCOCCCCC(=O)Oc4ccccc4)c4ccccc4C3(C)C)/CCC2)C(C)(C)c2ccccc21 [Example 37A, 2-((E)-2-((E)-2-chloro-3-(2-((E)-3,3-dimethyl-1-(2-((5-oxo-5-phenoxypentyl)oxy)ethyl)indolin-2-ylidene)ethenyl)cyclohex-1-en-1-yl)ethenyl)-1-ethyl-3,3-dimethyl-3H-indol-1-ium 2,2,2-trifluoroacetate]
584	0.364	CN1C(=O)/C(=C\C2=C(Cl)C(=C/C=C3/N(CCCCC(=O)Oc4ccccc4)c4ccccc4C3(C)C)/C[N+](C)(C)C2)c2ccccc21 [Example 38]
	0.93	CC[N+]1=C(/C=C/C2=C(Cl)C(=C/C=C3/N(CCCCCC(=O)Oc4ccccc4)c4ccccc4C3(C)C)/CCC2)C(C)(C)c2cc(S(C)(=O)=O)ccc21 [Example 40, 2-((E)-2-((E)-2-chloro-3-(2-((E)-3,3-dimethyl-1-(6-oxo-6-phenoxyhexyl)indolin-2-ylidene)ethenyl)cyclohex-1-en-1-yl)ethenyl)-1-ethyl-3,3-dimethyl-5-(methylsulfonyl)-3H-indol-1-ium Chloride]
	2	COc1ccc2c(c1)C(C)(C)C(/C=C/C1=C(Cl)C(=C/C=C3/N(CCCCCC(=O)Oc4ccccc4)c4ccc(OC)cc4C3(C)C)/CCC1)=[N+]2C [Example 47, 2-((E)-2-((E)-2-chloro-3-(2-((E)-5-methoxy-3,3-dimethyl-1-(6-oxo-6-phenoxyhexyl)indolin-2-ylidene)ethenyl)cyclohex-1-en-1-yl)ethenyl)-5-methoxy-1,3,3-trimethyl-3H-indol-1-ium]
	2.02	CC1(C)C(/C=C/C2=C(Cl)C(=C/C=C3/N(CCCCCC(=O)Oc4ccccc4)c4ccccc4C3(C)C)/CCC2)=[N+](CCO)c2ccccc21 [Example 48, 2-((E)-2-((E)-2-chloro-3-(2-((E)-3,3-dimethyl-1-(6-oxo-6-phenoxyhexyl)indolin-2-ylidene)ethenyl)cyclohex-1-en-1-yl)ethenyl)-1-(2-hydroxyethyl)-3,3-dimethyl-3H-indol-1-ium Formate]
	2.3	CC1(C)C(/C=C/C2=C(Cl)C(=C/C=C3/N(CCCCCC(=O)O)c4ccccc4C3(C)C)/CCC2)=[N+](CCO)c2ccccc21 [Example 49, 2-((E)-2-((E)-3-(2-((E)-1-(5-carboxypentyl)-3,3-dimethylindolin-2-ylidene)ethenyl)-2-chlorocyclohex-1-en-1-yl)ethenyl)-1-(2-hydroxyethyl)-3,3-dimethyl-3H-indol-1-ium Chloride]
	1.97	CN(C)C1CC(/C=C/C2=[N+](C)c3ccccc3C2(C)C)=C(Cl)C(=C/C=C2/N(CCCCCC(=O)Oc3ccccc3)c3ccccc3C2(C)C)/C1 (stereo not drawn) [Example 50, 2-((E)-2-((E)-2-chloro-3-(2-((E)-3,3-dimethyl-1-(6-oxo-6-phenoxyhexyl)indolin-2-ylidene)ethenyl)-5-(dimethylamino)cyclohex-1-en-1-yl)ethenyl)-1,3,3-trimethyl-3H-indol-1-ium Formate]
	1.9	C[N+]1=C(/C=C/C2=C(Cl)C(=C/C=C3/N(CCOCCOCCC(=O)Oc4ccccc4)c4ccccc4C3(C)C)/CCC2)C(C)(C)c2ccccc21 [Example 51, 2-((E)-2-((E)-2-chloro-3-(2-((E)-3,3-dimethyl-1-(2-(2-(3-oxo-3-phenoxypropoxy)ethoxy)ethyl)indolin-2-ylidene)ethenyl)cyclohex-1-en-1-yl)ethenyl)-1,3,3-trimethyl-3H-indol-1-ium Formate]
	0.6	C[n+]1cccc2c1N=C(/C=C/C1=C(Cl)C(=C/C=C3/N(CCCCCC(=O)Oc4ccccc4)c4ccccc4C3(C)C)/CCC1)C2(C)C [Example 53, 2-((E)-2-((E)-2-chloro-3-(2-((E)-3,3-dimethyl-1-(6-oxo-6-phenoxyhexyl)indolin-2-ylidene)ethenyl)cyclohex-1-en-1-yl)ethenyl)-3,3,7-trimethyl-3H-pyrrolo[2,3-b]pyridin-7-ium 2,2,2-trifluoroacetate]
	2.57	CC[N+]1=C(/C=C/C2=C(Br)C(=C/C=C3/N(CCCCCC(=O)Oc4ccccc4)c4ccccc4C3(C)C)/CCC2)C(C)(C)c2ccccc21 [Example 54, 2-((E)-2-((E)-2-bromo-3-(2-((E)-3,3-dimethyl-1-(6-oxo-6-phenoxyhexyl)indolin-2-ylidene)ethenyl)cyclohex-1-en-1-yl)ethenyl)-1-ethyl-3,3-dimethyl-3H-indol-1-ium Formate]

SMILES	Absorption peak [nm]	Absorbance × 10^4
CC1(C)C(/C=C/C2=C(Cl)C(=C/C=C3/N(CCCCCC(=O)O)c4ccccc4C3(C)C)/C[N+](C)(C)C2)=[N+](CCCCCC(=O)O)c2ccccc21 [Example 25]	767.5	2.265
CC[N+]1=C(/C=C/C2=C(Cl)C(=C/C=C3/N(CCCCCC(=O)Oc4ccccc4)c4ccccc4C3(C)C)/C[N+](C)(C)C2)C(C)(C)c2ccccc21 [Example 28]	766	1.856
CC[N+]1=C(/C=C/C2=C(Cl)C(=C/C=C3/N(CCOCCCCCC(=O)Oc4ccccc4)c4ccccc4C3(C)C)/CCC2)C(C)(C)c2ccccc21 [Example 35, 2-((E)-2-((E)-2-chloro-3-(2-((E)-3,3-dimethyl-1-(2-((6-oxo-6-phenoxyhexyl)oxy)ethyl)indolin-2-ylidene)ethenyl)cyclohex-1-en-1-yl)ethenyl)-1-ethyl-3,3-dimethyl-3H-indol-1-ium 2,2,2-trifluoroacetate]	794.5	2.21
CC[N+]1=C(/C=C/C2=C(Cl)C(=C/C=C3/N(CCOCCCC(=O)Oc4ccccc4)c4ccccc4C3(C)C)/CCC2)C(C)(C)c2ccccc21 [Example 36, 2-((E)-2-((E)-2-chloro-3-(2-((E)-3,3-dimethyl-1-(2-(4-oxo-4-phenoxybutoxy)ethyl)indolin-2-ylidene)ethenyl)cyclohex-1-en-1-yl)ethenyl)-1-ethyl-3,3-dimethyl-3H-indol-1-ium 2,2,2-trifluoroacetate]	795.5	3.368
C[N+]1=C(/C=C/C2=C(Cl)C(=C/C=C3/N(CCOCCC(=O)Oc4ccccc4)c4ccccc4C3(C)C)/CCC2)C(C)(C)c2ccccc21 [Example 52, 2-((E)-2-((E)-2-chloro-3-(2-((E)-3,3-dimethyl-1-(2-(3-oxo-3-phenoxypropoxy)ethyl)indolin-2-ylidene)ethenyl)cyclohex-1-en-1-yl)ethenyl)-1,3,3-trimethyl-3H-indol-1-ium Chloride]		2.14
C[N+]1=C(/C=C/C2=C(Cl)C(=C/C=C3/N(CCOCCOCCOCc4ccccc4)c4ccccc4C3(C)C)/CC2)C(C)(C)c2ccccc21 [Example 55, 2-((E)-2-((E)-3-(2-((E)-1-(2-(2-(2-(benzyloxy)ethoxy)ethoxy)ethyl)-3,3-dimethylindolin-2-ylidene)ethenyl)-2-chlorocyclopent-1-en-1-yl)ethenyl)-1,3,3-trimethyl-3H-indol-1-ium Formate]		3.48
C[N+]1=C(/C=C/C2=C(Cl)C(=C/C=C3/N(CCOCCOCCOCc4ccccc4)c4ccccc4C3(C)C)/CCC2)C(C)(C)c2ccccc21 [Example 56, 2-((E)-2-((E)-3-(2-((E)-1-(2-(2-(2-(benzyloxy)ethoxy)ethoxy)ethyl)-3,3-dimethylindolin-2-ylidene)ethenyl)-2-chlorocyclohex-1-en-1-yl)ethenyl)-1,3,3-trimethyl-3H-indol-1-ium 2,2,2-trifluoroacetate]		1.85
